Patent US10577360B2, “Arylamide derivatives having multimodal activity against pain” (ESTEVE PHARMACEUTICALS, S.A., priority 2016, dated 2020)

Target: Human α2δ-1 subunit of Cav2.2 calcium channel (Homo sapiens (Human), UniProt P54289)
Assay: Human α2δ-1 subunit of Cav2.2 calcium channel assay ([3H]-Gabapentin binding)
Details: not given

Human α2δ-1 subunit of Cav2.2 calcium channel, sequence (P54289 25-1103): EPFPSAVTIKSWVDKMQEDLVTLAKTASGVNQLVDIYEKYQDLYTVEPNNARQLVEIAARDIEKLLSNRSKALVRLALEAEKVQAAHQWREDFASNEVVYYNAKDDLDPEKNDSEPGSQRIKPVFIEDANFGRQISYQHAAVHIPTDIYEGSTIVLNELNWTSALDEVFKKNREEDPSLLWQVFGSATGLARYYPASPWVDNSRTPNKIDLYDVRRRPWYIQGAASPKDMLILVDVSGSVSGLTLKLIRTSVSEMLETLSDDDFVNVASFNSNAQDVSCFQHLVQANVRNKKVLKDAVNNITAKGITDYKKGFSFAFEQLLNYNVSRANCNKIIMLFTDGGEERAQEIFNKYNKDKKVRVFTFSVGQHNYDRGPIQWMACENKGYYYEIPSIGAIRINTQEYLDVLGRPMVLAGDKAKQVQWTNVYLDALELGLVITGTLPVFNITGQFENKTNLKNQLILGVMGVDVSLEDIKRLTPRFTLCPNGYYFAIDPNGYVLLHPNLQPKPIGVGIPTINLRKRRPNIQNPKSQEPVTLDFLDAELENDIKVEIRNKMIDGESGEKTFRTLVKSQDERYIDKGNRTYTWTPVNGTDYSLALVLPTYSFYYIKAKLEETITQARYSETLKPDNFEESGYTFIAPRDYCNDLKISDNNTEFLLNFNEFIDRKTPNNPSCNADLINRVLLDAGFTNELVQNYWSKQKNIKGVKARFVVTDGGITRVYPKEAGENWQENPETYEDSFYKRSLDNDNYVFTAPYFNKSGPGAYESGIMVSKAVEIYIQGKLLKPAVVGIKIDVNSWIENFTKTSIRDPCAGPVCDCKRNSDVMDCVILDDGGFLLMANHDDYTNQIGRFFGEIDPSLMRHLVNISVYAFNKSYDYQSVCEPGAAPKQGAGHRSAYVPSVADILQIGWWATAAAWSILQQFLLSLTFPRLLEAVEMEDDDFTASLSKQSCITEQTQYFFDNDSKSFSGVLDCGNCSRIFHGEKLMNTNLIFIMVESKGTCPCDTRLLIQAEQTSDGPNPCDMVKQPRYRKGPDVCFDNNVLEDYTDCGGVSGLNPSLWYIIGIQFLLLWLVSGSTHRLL

Row | SMILES | Ki [µM]
1 | CN1CCCC(N(C(=O)c2cccs2)c2ccn(-c3ccccc3)n2)CC1 (stereo not drawn) [Example 39, N-(1-Methylazepan-4-yl)-N-(1-phenyl-1H-pyrazol-3-yl)thiophene-2-carboxamide] | 0.1 to 0.5
2 | O=C(c1cccs1)N(c1ccn(-c2ccccc2)n1)C1CCCNC1 (stereo not drawn) [Example 53, N-(1-Phenyl-1H-pyrazol-3-yl)-N-(piperidin-3-yl)thiophene-2-carboxamide] | 0.5 to 5
3 | O=C(c1cccs1)N(CCNCc1ccccc1)c1ccn(-c2ccccc2)n1 [Example 55, N-[2-(Benzylamino)ethyl]-N-(1-phenyl-1H-pyrazol-3-yl)thiophene-2-carboxamide] | 0.5 to 5
4 | O=C(c1cccs1)N(CCCNCc1ccccc1)c1ccn(-c2ccccc2)n1 [Example 56, N-[3-(Benzylamino)propyl]-N-(1-phenyl-1H-pyrazol-3-yl)thiophene-2-carboxamide] | 0.5 to 5
5 | CNCCN(C(=O)c1cccs1)c1ccn(-c2ccccc2)n1 [Example 57, N-[2-(Methylamino)ethyl]-N-(1-phenyl-1H-pyrazol-3-yl)thiophene-2-carboxamide] | 0.5 to 5
6 | CN(CCN(C(=O)c1cccs1)c1ccn(-c2ccccc2)n1)Cc1ccccc1 [Example 61, N-{2-[Benzyl(methyl)amino]ethyl}-N-(1-phenyl-1H-pyrazol-3-yl)thiophene-2-carboxamide] | 0.5 to 5
7 | CN(CCCN(C(=O)c1cccs1)c1ccn(-c2ccccc2)n1)Cc1ccccc1 [Example 62, N-{3-[Benzyl(methyl)amino]propyl}-N-(1-phenyl-1H-pyrazol-3-yl)thiophene-2-carboxamide] | 0.5 to 5
8 | CCN(C)CCN(C(=O)c1cccs1)c1ccn(-c2ccccc2)n1 [Example 63] | 0.5 to 5
9 | CCNCCN(C(=O)c1cccs1)c1ccn(-c2ccccc2)n1 [Example 68, N-[2-(Ethylamino)ethyl]-N-(1-phenyl-1H-pyrazol-3-yl)thiophene-2-carboxamide] | 0.5 to 5
10 | Cc1nnc(-c2cccc(-n3ccc(N(CCN(C)Cc4ccccc4)C(=O)c4cccs4)n3)c2)o1 [Example 69, N-{2-[Benzyl(methyl)amino]ethyl}-N-{1-[3-(5-methyl-1,3,4-oxadiazol-2-yl)phenyl]-1H-pyrazol-3-yl}thiophene-2-carboxamide] | 0.1 to 0.5

Same assay, conditions: [3H]-Gabapentin binding; read-out: α2δ − 1 (Ki)

Row | SMILES | Ki [µM]
11 | CN(CCN(C(=O)c1cccs1)c1ccn(-c2ccccc2)n1)Cc1ccncc1 [Example 64, N-{2-[Methyl(pyridin-4-ylmethyl)amino]ethyl}-N-(1-phenyl-1H-pyrazol-3-yl)thiophene-2-carboxamide] | > 5
12 | CN(CCN(C(=O)c1cccs1)c1ccn(-c2ccccc2)n1)Cc1cccnc1 [Example 65] | 0.5 to 5
13 | CN(C)C1CCC(N(C(=O)c2cccs2)c2ccn(-c3ccccc3)n2)CC1 (stereo not drawn) [Example 127, N-[4-(Dimethylamino)cyclohexyl]-N-(1-phenyl-1H-pyrazol-3-yl)thiophene-2-carboxamide] | > 5
14 | CN(Cc1ccccc1)C1CCC(N(C(=O)c2cccs2)c2ccn(-c3ccccc3)n2)CC1 (stereo not drawn) [Example 128, N-{4-[Benzyl(methyl)amino]cyclohexyl}-N-(1-phenyl-1H-pyrazol-3-yl)thiophene-2-carboxamide] | > 5
15 | Cc1nnc(-c2cccc(-n3ccc(N(C(=O)c4cccs4)[C@H]4CC[C@H](N(C)C)CC4)n3)c2)o1 [Example 149, N-[(1r,4r)-4-(Dimethylamino)cyclohexyl]-N-{1-[3-(5-methyl-1,3,4-oxadiazol-2-yl)phenyl]-1H-pyrazol-3-yl}thiophene-2-carboxamide] | > 5
16 | Cc1nnc(-c2cccc(-n3ccc(N(C(=O)c4cccc(O)c4)[C@H]4CC[C@H](N(C)C)CC4)n3)c2)o1 [Example 150, N-[(1r,4r)-4-(Dimethylamino)cyclohexyl]-3-hydroxy-N-{1-[3-(5-methyl-1,3,4-oxadiazol-2-yl)phenyl]-1H-pyrazol-3-yl}benzamide] | > 5
17 | Cc1nnc(-c2cccc(-n3ccc(N(C(=O)c4cccs4)[C@H]4CC[C@H](N(C)Cc5ccccc5)CC4)n3)c2)o1 [Example 151, N-{(1r,4r)-4-[Benzyl(methyl)amino]cyclohexyl}-N-{1-[3-(5-methyl-1,3,4-oxadiazol-2-yl)phenyl]-1H-pyrazol-3-yl}thiophene-2-carboxamide] | > 5
18 | Cc1nnc(-c2cccc(-n3ccc(N(C(=O)c4cccs4)[C@H]4CC[C@@H](N(C)Cc5ccccc5)CC4)n3)c2)o1 [Example 152, N-{(1s,4s)-4-[Benzyl(methyl)amino]cyclohexyl}-N-{1-[3-(5-methyl-1,3,4-oxadiazol-2-yl)phenyl]-1H-pyrazol-3-yl}thiophene-2-carboxamide] | > 5
19 | Cc1nnc(-c2cccc(-n3ccc(N(C(=O)c4cccc(O)c4)[C@H]4CC[C@H](N(C)Cc5ccccc5)CC4)n3)c2)o1 [Example 153, N-{(1r,4r)-4-[Benzyl(methyl)amino]cyclohexyl}-3-hydroxy-N-{1-[3-(5-methyl-1,3,4-oxadiazol-2-yl)phenyl]-1H-pyrazol-3-yl}benzamide] | > 5
20 | Cc1nnc(-c2cccc(-n3ccc(N(C(=O)c4cccc(O)c4)[C@H]4CC[C@@H](N(C)Cc5ccccc5)CC4)n3)c2)o1 [Example 154, N-{(1s,4s)-4-[Benzyl(methyl)amino]cyclohexyl}-3-hydroxy-N-{1-[3-(5-methyl-1,3,4-oxadiazol-2-yl)phenyl]-1H-pyrazol-3-yl}benzamide] | > 5

Same assay, conditions: read-out: α2δ − 1 (Ki)

Row | SMILES | Ki [µM]
21 | CN1CCCC(N(C(=O)c2cccs2)c2ccn(-c3ccccc3)n2)C1 (stereo not drawn) [Example 67, N-(1-Methylpiperidin-3-yl)-N-(1-phenyl-1H-pyrazol-3-yl)thiophene-2-carboxamide] | > 5
